Measurements from US20250313828A1, “SYNTHETIC GENETIC PLATFORM IN EUKARYOTE CELLS AND METHODS OF USE” (University of Washington, priority 2022, published 2025).
Entries after “also recorded” stand apart in the source; their conditions may differ.

Tests used:
auxin promoter::Venus = experiment: Repression activity of H1 helices fused to IAA3 in the AtARCSc, fluorescence flow cytometry; format: cell-based, Saccharomyces cerevisiae; conditions: for Repression activity of H1-HA-IAA3 library constructs: H1-HA-IAA3 expressed off a plasmid, static ARC components integrated at URA3
[1] = format: cell-based, Saccharomyces cerevisiae
Protocol: Western Blot. […] Cells were harvested by centrifugation. Cells were lysed by vortexing for 5 min in the presence of 200 μl of 0.5-mm diameter acid washed glass beads and 200 μl SUMEB buffer (1% SDS, 8 M urea, 10 mM MOPS pH 6.8, 10 mM EDTA, 0.01% bromophenol blue, 1 mM PMSF) per one OD unit of original culture. Lysates were then incubated at 65° C. for 10 min and cleared by centrifugation prior to electrophoresis and blotting. Antibodies: anti-HA-HRP (REF-12013819001, Clone 3F10, Roche/Millipore Sigma, St. Louis, MO), anti-PGK1 (ab113687, AbCam). Protein concentrations were quantified using ImageJ, with PGK1 protein measured in each strain to normalize protein concentrations across strains. To compare protein concentrations to […]1, these were then normalized to TPL concentration using this equation: ([[…]1 normalized protein concentrations were plotted on a Log 2 scale.

H1 sequence of TBL1 = target: T1, H1 sequence of TBL1 (Homo sapiens, UniProt O60907); experiment: Small molecule testing on the yeast H1 platform, TBL1 helix fused to IAA3; format: cell-based; conditions: yeast cultured 4 hours with compound, flow cytometry, absence of Beta-catenin
T1 construct: expressed in transfected cells; host or cells: Saccharomyces cerevisiae reporter strain (AFB2, ARF19 and auxin promoter::Venus integrated at URA3)
Protocol: (§1) Yeast were grown overnight from a dilution of […] at 30° C. and 250 rpm. When cell density reached […] either control (DMSO) or small molecule BC2059 were added at the indicated concentration, and cultured for 4 hours before being measured for fluorescence by flow cytometry. Each data point represents three independent time-course flow cytometry experiments of the helices indicated, all fused to IAA3. Every point represents the average fluorescence of at least 10,000 individually measured yeast cells (a.u.: arbitrary units). Error bars are standard error.

TPL sequence = target: T2, TPL sequence (Arabidopsis thaliana, UniProt Q94AI7); experiment: Small molecule testing on the yeast H1 platform, TPL helix fused to IAA3; format: cell-based; conditions: yeast cultured 4 hours with compound, flow cytometry
T2 construct: a construct carrying only the first 18 amino acids of Helix 1 of the LisH domain fused to IAA3; expressed in transfected cells; host or cells: Saccharomyces cerevisiae reporter strain (AFB2, ARF19 and auxin promoter::Venus integrated at URA3)
Protocol: as §1

mutant TBL1 H1 sequence = experiment: Cancer variant detection using the yeast H1 platform; format: cell-based, Homo sapiens (Human); conditions: 500 nM, 4 hours, compared with wild type TBL1 H1
Protocol: as §1, with “of the TBL1 or control helices indicated,” for “of the helices indicated,”
Yeast carrying either the wild type or mutant TBL1 H1 sequence were cultured in the presence or absence of 500 nM Tegatrabetan and fluorescence measured by flow cytometry. […] This approach is particularly relevant to personalized medicine for a given mutation in a patient.

[2] = system: synthetic auxin reporter DR5-Venus; experiment: H1 repression assay, transient transformation in tobacco leaves; format: in vivo, Nicotiana benthamiana; conditions: transient expression in tobacco, IAA3 EAR motif mutated to AxAxA
Protocol: Reporter activation was measured in four separate leaf injections (biological replicates) in two days of injection (boxplots illustrated in FIG. 5C are pooled data from one day, with two replicates divided on right and left panels). Each leaf was excised at 8 locations and measured for Venus fluorescence using a plate scanner. pDR5:Venus: the synthetic DR5 auxin promoter (Ulmasov et al., Plant Cell 9, 1963-1971, 1997) driving Venus; ARF19: […]; […] Plant growth. […] Strain density was normalized to an OD600 of 1 for each strain in the final mixture of strains before injection into tobacco leaves. Leaves were removed, and eight different regions were excised using a hole punch, placed into a 96-well microtiter plate with 100 μl of water. Each leaf punch was scanned in a 4×4 grid for yellow and red fluorescence using a plate scanner (Tecan Spark, Tecan Trading AG, Switzerland). Fluorescence data was quantified and plotted in R (ggplots2).

## 1853M: cancer variant H1 KELLLLMRNHLIS, SEQ ID NO: 85
Auxin promoter::Venus
  Repression activity of H1-HA-IAA3 library constructs: slightly decrease
[1]
  Protein accumulation / stability: slightly increasing protein accumulation

## C[C@@H]1C[C@H](C)CN(S(=O)(=O)c2ccc3c(c2)C(=NO)c2cc(S(=O)(=O)N4C[C@H](C)C[C@H](C)C4)ccc2C3=NO)C1 [BC2059, Tegavivint]
H1 sequence of TBL1
  Effect on TBL1's repressive activity on transcription: dose-dependent interference
TPL sequence
  Effect on TPL H1 repression: unaffected
Mutant TBL1 H1 sequence
  Responsiveness of TBL1 H1 cancer variant mutations to the compound: Certain cancer mutants were less sensitive to treatment

## DmGID8: H1 tested in tobacco; probably H1-DmDMEI, ADLNRLVMNYLVT, SEQ ID NO: 38 (listed as Drosophila sechellia)
[2]
  Repression of reporter in planta: not functional

## F10A: TPL H1 mutant RELVALILQFLDE, SEQ ID NO: 121
Auxin promoter::Venus; AtARCSc in yeast, auxin (IAA-10 μM) added
  Time course flow cytometry following auxin addition (de-repression): strengthened the durability of repression H1, converting it into an auxin-insensitive repression domain; also recorded: loss of auxin sensitivity
[2]
  Repression of reporter in planta: improvements in repression in tobacco compared to wild type

## H856Y: cancer variant H1 KELLLLIRNYLIS, SEQ ID NO: 87
Auxin promoter::Venus
  Repression activity of H1-HA-IAA3 library constructs: not significantly affected
[1]
  Protein accumulation / stability: not significantly affected

## HsLIS1: H1 sequence DELNRAIADYLRS, SEQ ID NO: 63 (listed as Homo sapiens)
Auxin promoter::Venus
  Repression activity of H1-HA-IAA3 library constructs: repressive
[1]
  Protein accumulation / stability: well expressed

## HsTBL1X Y64C: cancer variant H1 DEVNFLVCRYLQE, SEQ ID NO: 81
Auxin promoter::Venus
  Repression activity of H1-HA-IAA3 library constructs: strongest repressor
[1]
  Protein accumulation / stability: highest accumulation

## L851F: cancer variant H1 KELLFLIRNHLIS, SEQ ID NO: 84
Auxin promoter::Venus
  Repression activity of H1-HA-IAA3 library constructs: dramatically reduces
[1]
  Protein accumulation / stability: dramatically reduces

## PfGID8: H1 tested in tobacco; perhaps H1-BCR36DRAFT, KDLNKLIMNYLVI, SEQ ID NO: 36 (listed as Chytriomyces confervae)
[2]
  Repression of reporter in planta: less

## R6E: TPL H1 mutant EELVFLILQFLDE, SEQ ID NO: 91
Auxin promoter::Venus
  Repression activity of H1-HA-IAA3 library constructs: loss of repression
[1]
  Protein accumulation / stability: negative effect on protein accumulation

## R6N: TPL H1 mutant NELVFLILQFLDE, SEQ ID NO: 94
Auxin promoter::Venus
  Repression activity of H1-HA-IAA3 library constructs: loss of repression
[1]
  Protein accumulation / stability: negative effect on protein accumulation

## R6V: TPL H1 mutant VELVFLILQFLDE, SEQ ID NO: 106
Auxin promoter::Venus
  Repression activity of H1-HA-IAA3 library constructs: loss of repression
[1]
  Protein accumulation / stability: negative effect on protein accumulation

## R14W: cancer variant H1 DEVNFLVYWYLQE, SEQ ID NO: 83
Auxin promoter::Venus
  Repression activity of H1-HA-IAA3 library constructs: higher repression rates
[1]
  Protein accumulation / stability: reductions in protein abundance

## R65Q: cancer variant H1 DEVNFLVYQYLQE, SEQ ID NO: 82
Auxin promoter::Venus
  Repression activity of H1-HA-IAA3 library constructs: higher repression rates
[1]
  Protein accumulation / stability: reductions in protein abundance

## R854Q: cancer variant H1 KELLLLIQNHLIS, SEQ ID NO: 86
Auxin promoter::Venus
  Repression activity of H1-HA-IAA3 library constructs: increase
[1]
  Protein accumulation / stability: slightly increasing protein accumulation

## SpHIF2: H1 sequence NQVNYIIWRYLKE, SEQ ID NO: 17 (Schizosaccharomyces pombe)
Auxin promoter::Venus
  Repression activity of H1-HA-IAA3 library constructs: not detected
[1]
  Protein accumulation / stability: very poor protein stability
